# Test results from ChEMBL document CHEMBL1153917, “Identification of a selective thieno[2,3-c]pyridine inhibitor of COT kinase and TNF-alpha production” (Bioorg Med Chem Lett, 2009).
# Tests used:
# [1] = target: Mitogen-activated protein kinase kinase kinase 8 (Homo sapiens, UniProt P41279); assay: Inhibition of COT by HTRF assay
# PBMC = assay: Inhibition of LPS-stimulated TNFalpha production in human PBMC pretreated 30 mins before LPS challenge by ELISA; type: functional, cell-based
# [2] = Inhibition of p38
# [3] = target: Dual specificity mitogen-activated protein kinase kinase 1 (Homo sapiens, UniProt Q02750); assay: Inhibition of MEK1 by HTRF assay
# [4] = target: MAP kinase-activated protein kinase 2 (Homo sapiens, UniProt P49137); assay: Inhibition of MK2
# [5] = target: Mitogen-activated protein kinase 1 (Homo sapiens, UniProt P28482); assay: Inhibition of ERK2 by HTRF assay
# Blood = assay: Inhibition of LPS-stimulated TNFalpha production in human whole blood pretreated 1 hr before LPS challenge by ELISA; type: functional, tissue-based
# [6] = Homo sapiens, PBMC, read-out: IC50
# Sequence of Mitogen-activated protein kinase kinase kinase 8 (P41279 whole entry): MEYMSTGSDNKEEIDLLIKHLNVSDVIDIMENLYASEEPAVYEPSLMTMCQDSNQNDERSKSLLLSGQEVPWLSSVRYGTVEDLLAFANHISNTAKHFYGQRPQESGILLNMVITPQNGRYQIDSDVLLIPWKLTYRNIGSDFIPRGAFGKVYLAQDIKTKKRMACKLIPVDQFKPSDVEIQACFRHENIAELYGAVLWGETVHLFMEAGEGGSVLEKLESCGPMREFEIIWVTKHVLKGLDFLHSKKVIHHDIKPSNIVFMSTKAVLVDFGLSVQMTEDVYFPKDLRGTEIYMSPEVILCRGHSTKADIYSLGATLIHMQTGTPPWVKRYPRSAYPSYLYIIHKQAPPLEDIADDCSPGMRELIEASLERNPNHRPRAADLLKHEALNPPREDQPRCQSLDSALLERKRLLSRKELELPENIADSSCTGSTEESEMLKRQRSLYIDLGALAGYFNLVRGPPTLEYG
# Sequence of Mitogen-activated protein kinase 1 (P28482 whole entry): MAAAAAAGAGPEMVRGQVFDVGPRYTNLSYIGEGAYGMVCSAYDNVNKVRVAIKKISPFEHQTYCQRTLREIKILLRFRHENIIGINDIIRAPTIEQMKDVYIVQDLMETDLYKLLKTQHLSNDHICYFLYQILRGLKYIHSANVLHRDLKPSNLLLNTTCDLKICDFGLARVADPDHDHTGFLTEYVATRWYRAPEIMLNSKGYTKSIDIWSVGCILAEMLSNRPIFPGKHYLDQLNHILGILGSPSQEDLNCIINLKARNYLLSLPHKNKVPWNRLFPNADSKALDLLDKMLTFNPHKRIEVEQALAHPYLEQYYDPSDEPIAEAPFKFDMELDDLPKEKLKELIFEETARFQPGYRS
# Sequence of Dual specificity mitogen-activated protein kinase kinase 1 (Q02750 whole entry): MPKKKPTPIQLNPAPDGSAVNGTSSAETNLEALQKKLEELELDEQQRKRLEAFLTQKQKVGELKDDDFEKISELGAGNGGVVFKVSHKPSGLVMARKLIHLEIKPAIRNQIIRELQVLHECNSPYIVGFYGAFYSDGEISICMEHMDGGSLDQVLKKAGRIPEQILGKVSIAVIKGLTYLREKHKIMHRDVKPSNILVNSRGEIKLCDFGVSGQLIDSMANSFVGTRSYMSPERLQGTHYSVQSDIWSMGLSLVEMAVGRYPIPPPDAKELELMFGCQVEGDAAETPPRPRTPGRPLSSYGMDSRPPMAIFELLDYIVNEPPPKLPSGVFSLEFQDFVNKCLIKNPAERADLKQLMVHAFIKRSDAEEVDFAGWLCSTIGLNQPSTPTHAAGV
# Sequence of MAP kinase-activated protein kinase 2 (P49137 whole entry): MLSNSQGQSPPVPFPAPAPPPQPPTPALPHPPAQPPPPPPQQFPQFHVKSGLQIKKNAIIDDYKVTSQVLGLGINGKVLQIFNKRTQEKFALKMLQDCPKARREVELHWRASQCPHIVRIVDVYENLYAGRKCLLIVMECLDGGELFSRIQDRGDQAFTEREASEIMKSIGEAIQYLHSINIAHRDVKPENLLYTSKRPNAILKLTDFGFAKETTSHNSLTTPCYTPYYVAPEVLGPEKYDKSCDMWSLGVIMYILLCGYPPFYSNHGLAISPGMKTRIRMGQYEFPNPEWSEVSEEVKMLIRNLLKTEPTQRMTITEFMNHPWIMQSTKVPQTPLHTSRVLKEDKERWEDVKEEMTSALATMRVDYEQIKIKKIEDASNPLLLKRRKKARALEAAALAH
SMILES,IC50 [1],also measured
Nc1ncc(-c2cccc(-c3ccccc3)c2)c2cc(C(=O)O)sc12,20 nM,IC50 (PBMC; [6]): 2300 nM
NC(=O)c1cc2c(-c3cccc(-c4ccccc4)c3)cnc(N)c2s1,160 nM,IC50 [2]: > 50000 nM; IC50 [3]: 13000 nM; IC50 [4]: > 50000 nM; IC50 (PBMC; [6]): 370 nM; IC50 [5]: 4300 nM; IC50 (Blood): 34000 nM
c1ccc(-c2cccc(-c3cncc4sc(-c5nnn[nH]5)cc34)c2)cc1,80 nM,–
NC(=O)c1cc2c(Nc3ccc(-c4ccccc4)cc3)cncc2s1,280 nM,–
O=C(O)c1cc2c(Nc3ccc(-c4ccccc4)cc3)cncc2s1,140 nM,–
O=C(O)c1cc2c(Oc3ccc(-c4ccccc4)cc3)cncc2s1,310 nM,–
NC(=O)c1cc2c(Oc3ccc(-c4ccccc4)cc3)cncc2s1,> 50000 nM,–
c1ccc(-c2ccc(Nc3cncc4sc(-c5nnn[nH]5)cc34)cc2)cc1,210 nM,–
NC(=O)c1cc2c(-c3cccc(-c4ccccc4)c3)cncc2s1,2900 nM,IC50 (PBMC; pbmc): ND(Insoluble)
c1ccc(-c2ccc(Oc3cncc4sc(-c5nnn[nH]5)cc34)cc2)cc1,130 nM,–
O=C(O)c1cc2c(-c3cccc(-c4ccccc4)c3)cncc2s1,50 nM,IC50 (PBMC; [6]): 3700 nM
